Experiment [1] addresses Carbonic anhydrase 9 (Homo sapiens, UniProt Q16790).
Description: Inhibition of recombinant human CA9 pre-incubated for 15 mins measured by phenol red dye based stopped flow CO2 hydration assay
Experiment [2] has as its target Carbonic anhydrase 2 (Homo sapiens, UniProt P00918).
Description: Inhibition of recombinant human CA2 pre-incubated for 15 mins measured by phenol red dye based stopped flow CO2 hydration assay
The target of experiment [3] is Carbonic anhydrase 1 (Homo sapiens, UniProt P00915). In words: Inhibition of recombinant human CA1 pre-incubated for 15 mins measured by phenol red dye based stopped flow CO2 hydration assay.
The target in experiment [4] is Carbonic anhydrase 12 (Homo sapiens, UniProt O43570). The experiment can be described thus: Inhibition of recombinant human CA12 pre-incubated for 15 mins measured by phenol red dye based stopped flow CO2 hydration assay.
Chain of Carbonic anhydrase 12 (O43570 whole entry): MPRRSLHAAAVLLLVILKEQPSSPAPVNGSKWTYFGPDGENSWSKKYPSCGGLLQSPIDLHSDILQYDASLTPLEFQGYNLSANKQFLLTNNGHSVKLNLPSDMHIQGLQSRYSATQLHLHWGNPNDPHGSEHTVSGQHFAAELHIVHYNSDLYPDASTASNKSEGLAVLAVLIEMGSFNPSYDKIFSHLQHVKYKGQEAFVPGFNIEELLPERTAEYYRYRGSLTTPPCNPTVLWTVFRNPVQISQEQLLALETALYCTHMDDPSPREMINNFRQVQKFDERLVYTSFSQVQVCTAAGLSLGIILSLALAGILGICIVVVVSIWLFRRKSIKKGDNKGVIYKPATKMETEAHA
Experiment [5] has as its system MCF7. In words: Antiproliferative activity against human MCF7 cells after 48 hrs under hypoxic condition by MTT assay. It counts as functional, cell-based. The conditions noted are these: MCF7, 48 h.
In experiment [6] the test system is HCT-116. The experiment can be described thus: Antiproliferative activity against human HCT-116 cells after 48 hrs under hypoxic condition by MTT assay. In kind it is functional, cell-based. Conditions: HCT-116, 48 h.
Experiment [7] concerns HCT-116. The experiment can be described thus: Induction of apoptosis in human HCT116 cells assessed as early apoptotic cells after 24 hrs by Annexin-V-FITC/PI-staining based flow cytometry (reference value: 0.59%). It counts as functional.
Experiment [8] deals with HCT-116. In words: Induction of cell cycle arrest in human HCT116 cells assessed as cell accumulation at S phase at IC50 concentration after 24 hrs by propidium iodide staining based flow cytometry analysis. It counts as functional.
Experiment [9] relates to HCT-116. The experiment can be described thus: Induction of apoptosis in human HCT116 cells assessed as late apoptotic cells after 24 hrs by Annexin-V-FITC/PI-staining based flow cytometry (reference value: 0.22%). It counts as functional.
In experiment [10] the test system is HCT-116. The experiment can be described thus: Induction of apoptosis in human HCT116 cells assessed as necrotic cells after 24 hrs by Annexin-V-FITC/PI-staining based flow cytometry (reference value: 1.01%). In kind it is functional.
For experiment [11], the system named is HCT-116. The experiment can be described thus: Induction of cell cycle arrest in human HCT116 cells assessed as cell accumulation at sub-G1 phase at IC50 concentration after 24 hrs by propidium iodide staining based flow cytometry analysis. It counts as functional.

The structures appear in SMILES notation. The source made the active and inactive calls. The calls are words filed in the database; no cut-off is given here.

Chain of Carbonic anhydrase 1 (P00915 whole entry): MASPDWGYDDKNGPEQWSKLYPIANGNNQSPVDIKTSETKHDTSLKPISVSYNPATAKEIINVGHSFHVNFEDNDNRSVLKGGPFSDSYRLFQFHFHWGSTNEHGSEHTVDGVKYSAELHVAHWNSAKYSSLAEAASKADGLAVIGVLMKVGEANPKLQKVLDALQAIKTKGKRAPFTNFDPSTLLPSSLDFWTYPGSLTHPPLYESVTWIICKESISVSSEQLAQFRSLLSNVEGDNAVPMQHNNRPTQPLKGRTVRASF

As for `Cc1ccc(S(=O)(=O)C(C)C(=O)Nc2ccc(S(N)(=O)=O)cc2)cc1` (centres undefined), affinity in experiment [1] was put at a Ki of 0.0298 µM.
Take `CC(=O)c1ccc(NC(=O)CS(=O)(=O)c2ccc(C)cc2)cc1`: the Ki in experiment [2], in experiment [3], in experiment [4] and in experiment [1] was more than 100 µM each time.
In the case of `Cc1ccc(S(=O)(=O)CC(=O)Nc2ccc([N+](=O)[O-])cc2)cc1`, the inhibition constant Ki in [2], in experiment [3], in experiment [4] and in [1] was more than 100 µM in each case.
`Cc1ccc(S(=O)(=O)CC(=O)Nc2ccc(C(=O)O)cc2)cc1`: the IC50 was 3.41 µM in experiment [5] and 2.23 µM in experiment [6]. Also, in [1], affinity was put at a Ki of 0.72 µM.
In the case of `CCOC(=O)c1ccc(NC(=O)CS(=O)(=O)c2ccccc2)cc1`, the Ki in experiment [2] was more than 100 µM; in experiment [3], more than 100 µM; in experiment [1] it was 17.2 µM.
Take `CCOC(=O)c1ccc(NC(=O)CS(=O)(=O)c2ccc(C)cc2)cc1`: the Ki in experiment [3] is more than 100 µM; in [4] it was more than 100 µM; in experiment [1], 29.5 µM.
As for `CC(C(=O)Nc1ccc(S(N)(=O)=O)cc1)S(=O)(=O)c1ccccc1` (centres undefined), in [1], the Ki was determined as 0.0065 µM.
For the compound `NS(=O)(=O)c1ccc(NC(=O)CS(=O)(=O)c2ccccc2)cc1`, in experiment [1], affinity was put at a Ki of 0.0227 µM.
`O=C(CS(=O)(=O)c1ccccc1)Nc1ccc(C(=O)O)cc1`: the values for the concentration for half-maximal inhibition (IC50) in [5] and in experiment [6] were 5.29 µM and 11.6 µM, respectively. The Ki is more than 100 µM in [3] and 0.93 µM in experiment [1].
Take `Cc1ccc(S(=O)(=O)CCC(=O)Nc2ccc(S(N)(=O)=O)cc2)cc1`: the Activity in experiment [7] turned out to be 0.91%; in [9], 21.45%; in [10], 9.63%. The IC50 in experiment [5] is 0.67 µM; in experiment [6], 0.57 µM. In addition, the outcome in experiment [8] and in experiment [11] was Active. The inhibition constant (Ki) in experiment [1] worked out at 0.0043 µM.
In experiment [1], `Cc1ccc(S(=O)(=O)CC(=O)Nc2ccc(S(N)(=O)=O)cc2)cc1` registered a Ki of 0.0159 µM.
The same measure, in the same setting: next, `NS(=O)(=O)c1ccc(NC(=O)CCS(=O)(=O)c2ccccc2)cc1`: 0.0461 µM.

The values are drawn from ChEMBL document CHEMBL4811238, “Identification of N-phenyl-2-(phenylsulfonyl)acetamides/propanamides as new SLC-0111 analogues: Synthesis and evaluation of the carbonic anhydrase inhibitory activities” (Eur J Med Chem, 2021).
